According to patent US20110275714A1, “Use Of Cationic Surfactants As Acaricidal Agents” (priority 2009, published 2011):
“Also recorded” adds a separate entry of the source.

Key:
[1] = test system: Mold mite Tyrophagus putrescentiae; assay: Mold mite survivorship in diet with Mirenat-G (LAE in glycerin), four weeks (Example 3); assay type: in vivo; conditions: for Mold mites number: four weeks after infestation with 25 individuals, n = 15, means ± SEM
Procedure: This example determines the effect of three different concentrations of LAE on the mortality, reproduction and immature development of mold mite Tyrophagus putrescentiae. The dose level tested were 0.125%, 0.25% and 0.5% of LAE.
Mixed developmental stages of the Mold mite, Tyrophagus putrescentiae, were used in the experiments. The individuals of this specie came from IRTA, Crop Protection Department and had been maintained on standard diets at 25±1° C., 70±10% r.h. and a photoperiod of 16:8 L:D. Experiments were conducted in a climatic chamber at the same environmental conditions.
The food additive Mirenat-G (10.5% LAE in glycerin) was supplied by the company VEDEQSA and was uniformly mixed with a mix of bran, brewer's yeast for the Mold mite. It was tested at the following dosages of 0.125%, 0.25% and 0.5% LAE. A control treatment with no food additive was included for reference. Fifteen replications per treatment were prepared.
For the mold mite, the experimental arenas were ventilated plastic cages (100 ml) containing 15 g of a mixed diet (bran, brewer's yeast and glycerin). Mites were added to arenas in numbers of 25 individuals. Plastic cages were isolated in hermetic boxes containing a solution of glycerine in order to maintain the relative humidity at 75%.
Four weeks after T. putrescentiae infestation the total number of individuals present in each replication was counted.
The mean number of individuals were compared between treatments with or without the additive for the pest specie using a one-way analysis of variance (ANOVA) procedure and means were separated by Tukey test (PROC GLM; SAS Institute 2000).

[2] = test system: Clostridium perfringens ATCC 77454; conditions: Gram + Bacteria; cited from earlier work
[3] = animals and humans; cited from earlier work
[4] = test system: Arthrobacter oxydans ATCC 8010; conditions: Gram + Bacteria; cited from earlier work
Escherichia coli 0157H7 = conditions: Gram − Bacteria; cited from earlier work
[5] = test system: Aureobasidium pullulans ATCC 9348; conditions: Fungi; cited from earlier work
[6] = test system: Alcaligenes faecalis ATCC 8750; conditions: Gram − Bacteria; cited from earlier work
[7] = test system: Staphylococcus aureus ATCC 6538; conditions: Gram + Bacteria; cited from earlier work
[8] = test system: Micrococcus luteus ATCC 9631; conditions: Gram + Bacteria; cited from earlier work
[9] = test system: Mycobacterium phlei ATCC 41423; conditions: listed under Gram − Bacteria; cited from earlier work
[10] = test system: Saccharomyces cerevisiae ATCC 9763; conditions: Yeast; cited from earlier work
[11] = test system: Gliocadium virens ATCC 4645; conditions: Fungi; cited from earlier work
[12] = test system: Chaetonium globosum ATCC 6205; conditions: Fungi; cited from earlier work
[13] = test system: Mold mite Tyrophagus putrescentiae; assay: Mold mite survivorship in rearing diet with LAE, six weeks (Example 2); assay type: in vivo; conditions: 1% LAE in diet
Procedure: This example determines the effect of LAE on the mortality, reproduction and immature development of Mold mite Tyrophagus putrescentiae.
Mixed developmental stages of the Mold mite, Tyrophagus putrescentiae, were used in the experiments. The individuals of the species came from IRTA, Crop Protection Department and had been maintained on standard diets at 25±1° C., 70±10% r.h. and a photoperiod of 16:8 L:D. Experiments were conducted in a climatic chamber at the same environmental conditions.
The food additive (LAE) was supplied by the company VEDEQSA as a fine sifted dust, and was uniformly mixed with a mix of bran, brewer's yeast and glycerin for the Mold mite. A high dosage of 1% LAE was tested. A control treatment with no food additive was included for reference. Fifteen replications per treatment were prepared.
For the mold mite, the experimental arenas were ventilated plastic cages (100 ml) containing 15 g of a mixed diet (bran, brewer's yeast and giycerine). Mites were added to arenas in numbers of 25 individuals. Plastic cages were isolated in hermetic boxes containing a solution of glycerine in order to maintain the relative humidity at 75%.
Six weeks after T. putrescentiae infestation the total number of individuals present in each replication was counted. […]

[14] = test system: Citrobacter freundii ATCC 22636; conditions: Gram − Bacteria; cited from earlier work
mite colonies = assay: Mite colonies on cured ham treated with LAE on the surface (Example 4); assay type: in vivo
Procedure: A dose level of 200 ppm of LAE (or 0.02% of LAE) was added onto the surface of a ham at the beginning of its curing process. The results were compared with a control sample that consisted on a cured ham without being treated with LAE. All hams (control and treated with LAE) were cured during a period of 6 months.
After 6 months, when the curing process was finished it was observed that 85% of ham not treated with LAE (control samples) had mite colonies alive onto the surfaces of hams. In contrast, only 30% of hams treated with LAE had mite colonies alive onto their surface.
Before delivering the hams to the client, the producer extracted the bone in order to slice the ham. It was observed that 25% of ham non-treated with LAE (control) contained mite colonies alive inside the ham. The presence of mite colonies produced the formation of holes between 2 to 3 cm of diameter. These holes in the ham looked like a putrefacted ham.

[15] = test system: Klebsiella pneumoniae var pneumoniae CECT 178; conditions: Gram − Bacteria; cited from earlier work
[16] = test system: Proteus mirabilis CECT 170; conditions: Gram − Bacteria; cited from earlier work
[17] = test system: Penicillium funiculosum CECT 2914; conditions: Fungi; cited from earlier work
[18] = test system: Pseudomonas aeruginosa ATCC 9027; conditions: Gram − Bacteria; cited from earlier work
[19] = test system: Bacillus cereus var mycoide ATCC 11778; conditions: Gram + Bacteria; cited from earlier work
[20] = test system: Aspergillus niger ATCC14604; conditions: Fungi; cited from earlier work
[21] = test system: Bacillus subtilis ATCC 6633; conditions: Gram + Bacteria; cited from earlier work
[22] = test system: Bordetella bronchiseptica ATCC 4617; conditions: Gram − Bacteria; cited from earlier work
[23] = test system: Hyalomma marginatum rufipes; assay: Mortality of adult ticks in vials with LAE in a food carrier (Example 1); conditions: 24 h contact
Procedure: This example determines the activity of LAE against a type of tick, Hyalomma marginatum rufipes.
During 3 weeks adult ticks of Hyalomma marginatum rufipes were unfed. 15 unsexed ticks were introduced in each vial of treatment. All vials were closed with a mesh and plastic bands in order to avoid that ticks could escape from the vials. The mortality of ticks was studied 24 h later and compared from the different treatments performed.
Two types of treatment were performed and then compared with the control. One treatment consisted in a dispersion of 0.2% LAE in a food carrier. The other treatment was 1.0% LAE in a food carrier. The control was a vial that contained the ticks without LAE. For each treatment and control samples 5 replicates were carried out.
After 24 hours of contact of ticks with LAE in the vials, the percentage of mortality of ticks was determined (Table 2).

[24] = test system: Lactobacillus delbrueckii ssp lactis CECT 372; conditions: Gram + Bacteria; cited from earlier work
[25] = test system: Salmonella typhimurium ATCC16028; conditions: Gram − Bacteria; cited from earlier work
[26] = test system: Leuconostoc mesenteroides CETC 912; conditions: Gram + Bacteria; cited from earlier work
[27] = test system: Listeria monocytogenes ATCC 7644; conditions: Gram + Bacteria; cited from earlier work
[28] = test system: Rhodotorula rubra CECT 1158; conditions: Yeast; cited from earlier work
[29] = rats; cited from earlier work
[30] = test system: Candida albicans ATCC 10231; conditions: Yeast; cited from earlier work
[31] = test system: Enterobacter aerogenes CECT 689; conditions: Gram − Bacteria; cited from earlier work
[32] = test system: Penicillium chrysogenum CECT 2802; conditions: Fungi; cited from earlier work
[33] = test system: Escherichia coli ATCC 8739; conditions: Gram − Bacteria; cited from earlier work
[34] = test system: Serratia marcenses CECT 274; conditions: Gram − Bacteria; cited from earlier work

In the case of `CCCCCCCCCCCC(=O)N[C@@H](CCCN=C(N)N)C(=O)OCC.Cl` [LAE, ethyl ester of the lauramide of the arginine monohydrochloride], the Mold mites number ([1]; 0.125% LAE (as Mirenat-G) in diet) was 20.9 ± 9.77, the Mold mites number ([1]; 0.25% LAE (as Mirenat-G) in diet) was 13.17 ± 3.70 and the Mold mites number ([1]; 0.5% LAE (as Mirenat-G) in diet) was 6.7 ± 1.49. For the same molecule, the “reduction in the mean number of individuals present” value ([1]; 0.5% of LAE, after 4-week infestation) was 70%, the M.I.C. [2] was 16 ppm and the toxicological studies [3] was “completely harmless to animals and humans”. The M.I.C. [4] was 64 ppm, the M.I.C. (Escherichia coli 0157H7) was 20 ppm and the M.I.C. [5] was 16 ppm. For the same molecule, the M.I.C. [6] was 64 ppm, the M.I.C. [7] was 32 ppm and the M.I.C. [8] was 128 ppm. For the same molecule, the M.I.C. [9] was 2 ppm, the M.I.C. [10] was 32 ppm and the M.I.C. [11] was 32 ppm. The M.I.C. [12] was 16 ppm, the Mold mites number ([13]; six weeks after infestation with 25 individuals, n = 15, mean ± SEM) was 0.1 ± 0.1^ and the “survivorship of the Mold mite in the standard rearing diet” value ([13]; six weeks after infestation, monohydrochloride) was “did not survive; also recorded: very low”. For the same molecule, the M.I.C. [14] was 64 ppm, the “hams with mite colonies alive onto their surface” value (mite colonies; 200 ppm (0.02%) LAE on ham surface at start of curing, after 6 months curing) was 30% and the “mite colonies alive inside the ham” value (mite colonies; 200 ppm (0.02%) LAE on ham surface, sliced ham after 6 months curing) was “no presence of mite colonies alive inside the ham”. For the same molecule, the M.I.C. [15] was 32 ppm, the M.I.C. [16] was 32 ppm and the M.I.C. [17] was 16 ppm. For the same molecule, the M.I.C. [18] was 64 ppm, the M.I.C. [19] was 32 ppm and the M.I.C. [20] was 32 ppm. For the same molecule, the M.I.C. [21] was 16 ppm, the M.I.C. [22] was 128 ppm and the Mortality ([23]; 0.2% LAE in a food carrier, n = 5) was 6.7%. For the same molecule, the Mortality ([23]; 1.0% LAE in a food carrier, n = 5, monohydrochloride) was 38.7%, the M.I.C. [24] was 16 ppm and the M.I.C. [25] was 32 ppm. The M.I.C. [26] was 32 ppm, the M.I.C. [27] was 10 ppm and the M.I.C. [28] was 16 ppm. The absorption and metabolisation [29] was “fast absorption and metabolisation into naturally-occurring amino acids and the fatty acid lauric acid”, the M.I.C. [30] was 16 ppm and the M.I.C. [31] was 32 ppm. For the same molecule, the M.I.C. [32] was 128 ppm, the M.I.C. [33] was 32 ppm and the M.I.C. [34] was 32 ppm.
